The values below come from US20020012620A1, “BACTERIAL LEACHING OF COPPER AND ZINC WITHOUT IRON LEACHING” (priority 1998, published 2002).

Test [1] has as its system Thiobacillus ferrooxidans. The experiment in a line: Fe^2+ oxidation by resting cells (oxygen consumption rate, Oxygraph). The test is classed as cell-based. The settings on record: for inhibition of Fe^2+ oxidation: pH 3. On the procedure:
For the resting cell experiments, cells from large scale growth were filtered through Whatman™ No. 1 filter paper under suction before centrifugation at 8000× g. The cells were washed in 0.1 M β-alanine-H2SO4 (pH 2.3) and suspended in the same buffer to a concentration of 50 mg wet cells per ml.
The rate of ferrous iron and sulfur oxidation by the resting cells was determined by the oxygen consumption rate (nmol O2/min) in a Gilson™ Oxygraph with a Clark™ oxygen electrode at 25° C. The reaction mixture in a total volume of 1.2 ml contained 10-100 μl cell suspension, 0.5 μmol FeSO4 or 0.1 ml elemental sulfur suspension (32 mg in 500 ppm Tween-80™) and 0.1 M β-alanine-H2SO4 at pH 3.0 (standard condition) or varying inhibitory concentrations of salts at pH 3.0, as described below. Specifically, the effect of standard biological oxidation inhibitors, sodium azide and sodium cyanide in 0.1 M β-alanine-H2SO4 at pH 3.0 was studied.

For test [2], the system named is Thiobacillus ferrooxidans. The experiment in a line: S^0 oxidation by resting cells (oxygen consumption rate, Oxygraph). It is filed as cell-based.
Test [3] deals with T. ferrooxidans. The method, then: (§1) Growth inhibition studies were carried out in a Micro-oxymax™ respirometer at Cominco Research in Trail, British Columbia, wherein the O2 and CO2 consumption (at 52 minute intervals) of cultures at 26° C. were monitored over time (45-50 hours). Each flask contained a total volume of 100 ml, comprised of 5 ml inoculum culture plus 95 ml HP medium with varying concentrations of inhibitors plus Fe^2+ or S^0 as growth substrate (33.3 g FeSO4.7H2O or 25 g sulfur per liter). In the S^0 medium, HP medium was supplemented with 18 mg FeSO4.7H2O per liter. A growth curve was generated from the monitored O2 and CO2 consumption rates over time, as described below.

Test [4] relates to T. thiooxidans. The method, then: as §1
Test [5] deals with T. thiooxidans. The experiment in a line: Bacterial leaching of flotation tailings with T. thiooxidans. The test is classed as cell-based, Thiobacillus thiooxidans. The method, then:
(§2) Bacterial leaching was performed in shake flask experiments with 250 ml Erlenmeyer™ flasks containing 95 ml of HP medium with and without inhibitors unless otherwise specified, 4 ml of inoculum (Fe^2+-grown T. ferrooxidans, S^0-grown T. thiooxidans or both) and 5 g of floatation tailings supplied by Cominco Research were used, as described below. The flasks were grown at 26° C. on a rotary shaker at 150 rpm for 14 days. At various time intervals, 5 ml samples were taken to determine the concentrations of dissolved zinc and iron in the leachate as well as the percentage of zinc and iron remaining in the precipitate (after filtration of the leachate).

Test [6] concerns bioleaching of chalcopyrite (CuFeS2) and sphalerite mixture. It is filed as cell-based. The method, then: as §2
Test [7] has as its system bacterial leaching of a complex sulfide ore. The experiment in a line: Bacterial leaching of a complex sulfide ore from the Flin Flon mine. The test is classed as cell-based, Thiobacillus thiooxidans SM-7. The method, then:
In this embodiment of the invention, bacterial strains Thiobacillus ferrooxidans SM-4 and Thiobacillus thiooxidans SM-6 (FIGS. 1, 3 and 4 and Table 2) or SM-7 (Table 5) were used. Specifically, T. ferrooxidans was grown on Fe^2+ or S^0 while T. thiooxidans was grown only on sulfur. HP medium, described in Suzuki et al, 1990, Appl Environ Microbiol 56:1620-1626, consisting of: 0.4 g (NH4)2SO4, 0.1 g K2HPO4, 0.4 g MgSO4.7H2O per liter, adjusted to pH 2.3 with H2SO4 was used for growth of bacteria on Fe^2+, for growth in a Micro-oxymax™ respirometer (both Fe^2+ and S^0 growth), and for mineral leaching experiments, as described below. For growth on Fe^2+, 33.3 g FeSO4.7H2O per liter (pH 2.3, filter-sterilized) was added to the above-described HP medium. Cultures were grown in shake flasks (100 ml) with 10% inoculum (v/v) in 250 ml Erlenmeyer™ flasks at 25° C. at 120 rpm for 24 hours. It is of note that for large scale growth, medium volume and flask size were increased.
. In fact, the highest level of Cu leaching using this ore is nearly five times greater than previously reported values in the absence of additional anions (Lizama and Suzuki, 1988, Biotechnol Bioeng 32: 110-116). […] That is, copper and zinc can be recovered from a complex ore without the need for separation simply by replacing the media following completion of copper leaching because of this lag time.

Test [8] deals with T. ferrooxidans. It is filed as cell-based, Thiobacillus ferrooxidans. The method, then:
as §2

The subject of test [9] is T. ferrooxidans and T. thiooxidans. On the procedure: as §2
The mark [10] stands for this setting: Acidithiobacillus ferrooxidans, pH 3, read-out: inhibition of Fe^2+ oxidation.
Setting [11] is: Acidithiobacillus ferrooxidans, pH 3, read-out: inhibition of S^0 oxidation.

“And” between values parts separate entries of the source, which are not always exact repeats. Equal values may be shown once.

potassium chloride: in [1], the “inhibition of Fe^2+ oxidation” value was 30% and 40%. Moreover, in test [2] (pH 3), the “inhibition of S^0 oxidation” value stood at 10%. In addition, the “Fe^2+ oxidation during growth” value in the test with T. ferrooxidans [3] is on record as “inhibited”. Further, the “S^0 oxidation during growth” value with T. thiooxidans [4] was “stimulated”. Further, in the test with T. thiooxidans [5], the Fe leaching entry is reported as “reduced Fe leaching at high concentrations, albeit to a much smaller degree”. Moreover, in test [6], the “extraction of Zn” value is recorded as “stimulated”. For the same molecule, in test [7], the Cu leaching result was “stimulation” and the Zn leaching entry is “stimulation”.
On to potassium nitrate, for which the “inhibition of Fe^2+ oxidation” value in [1] was 90% and 100%. Also, in the test on T. ferrooxidans [8], the Fe leaching entry was “reduced the Fe leaching similar to phosphate” and the Zn leaching entry is reported as “considerably inhibited”. For the same molecule, the Fe leaching entry in the test on T. thiooxidans [5] was “reduced Fe leaching at high concentrations, albeit to a much smaller degree”.
Regarding potassium phosphate, the “inhibition of Fe^2+ oxidation” value in test [1] came to 60%. In addition, the “Fe^2+ oxidation during growth” value with T. ferrooxidans [3] is “inhibited”. In the test with T. thiooxidans [4], the “S^0 oxidation during growth” value was “stimulated”. The “reduction in Zn leaching” value with T. ferrooxidans [8] was determined as 50%. Further, the Fe leaching result in the test with T. thiooxidans [5] is “strongly inhibited”. Moreover, in test [9], the Fe leaching result is recorded as “no Fe leaching” and the “inhibition of Fe leaching relative to Zn leaching” value is listed as “most effective inhibitor of Fe leaching without inhibiting Zn leaching extensively”. Also, in test [6], the “extraction of Zn” value is given as “slightly reduced” and the iron oxidation result is “reduced”. In addition, in test [7], the Cu leaching entry was “stimulation” and the Zn leaching result is recorded as “stimulation”.
By inhibition is commonly meant the drop in the measured response relative to a control, in per cent. For the molecule `[N-]=[N+]=[N-]` [sodium azide, reference compound], in [1] (setting [10]), the inhibition at 10 µM stood at 90% and the inhibition at 50 µM was 95%. Besides, in [2] (setting [11]), the inhibition at 10 µM amounted to 35% and the inhibition at 50 µM was found to be 90%.
